{"source": "patent US10696686B2", "about": "“Herbicidally active (alkynyl-phenyl)-substituted cyclic dione compounds and derivatives thereof” (Syngenta Limited, priority 2013, dated 2020)", "type_in_all_cases": "in vivo", "key": {"[1]": {"system": "grassy (in particular warm climate grassy) monocotyledonous weeds", "assay": "Post-emergence herbicidal activity, summary statements on Biological Examples 1 to 3", "conditions": "applied at about 250 g/ha post-emergence; Biological Examples 1 and 2", "method": "(§1) Seeds of a variety of test plant species were sown in standard soil ** in pots. After cultivation for one day (pre-emergence) or after 8 days cultivation (post-emergence) under controlled conditions in a glasshouse (at 24/16° C., day/night; 14 hours light; 65% humidity), the plants were sprayed with an aqueous spray solution derived from the formulation of the technical active ingredient (the test herbicide) in acetone/water (50:50) solution containing 0.5% Tween 20 (polyoxyethylene sorbitan monolaurate, CAS Reg. No. 9005-64-5). The test plants were then grown on under controlled conditions in a glasshouse (at 24/16° C., day/night; 14 hours light; 65% humidity) and watered twice daily. 13 Days after application of the test herbicide, for pre- and post-emergence, the test was evaluated visually for percentage phytotoxicity to each plant (where 100%=total damage to plant; 0%=no damage to plant). Generally, each test herbicide is only tested on 1 plant per plant species for each application rate tested and for each application timing. ** The “standard soil” in Biological Example 1 is usually a “sand” or “sandy loam” type of soil.\nSeeds of a variety of monocotyledonous and dicotyledonous test plants are sown in standard soil in pots. The plants are cultivated for one day (for pre-emergence) or for about 12 days (range=10-13 days) (for post-emergence) under controlled conditions in a glasshouse (warm climate species at 24/18° C., cool climate species at 20/16° C., both at day/night; 16 hours light; 65% humidity). An “instant formulation”, known as the “IF50”, containing 50 g/litre (i.e. 5% w/v) of the “technical” (i.e. unformulated) active ingredient is prepared by dissolving the active ingredient in a mixture of organic solvents and emulsifier, details of which are provided in the Table below. […]\nThe test plants are then grown on, in a glasshouse (greenhouse) under controlled conditions (at either 24/18° C. or 20/16° C. (day/night) as mentioned above; 16 hours light; 65% humidity) and are watered twice daily. Either 14 or 15 days after application of the herbicide (14 or 15 DAA) (for post-emergence), or 20 days after application of the herbicide (20 DAA) (for pre-emergence), the test plants are evaluated visually, and an assessed percentage phytotoxicity score is given for each herbicidal application on each plant species (where 100%=total damage to plant; 0%=no damage to plant). […]"}, "[2]": {"system": "Zea mays (ZEAMX, corn, maize, e.g. volunteer corn)", "assay": "Biological Example 1A glasshouse assay, post-emergence application", "conditions": "Zea mays, 312 h, post-emergence, 13 days after application, read-out: Percentage phytotoxicity ZEAMX", "method": "as §1\n(§2) Dicotyledonous weeds: ABUTH=Abutilon theophrasti; AMARE=Amaranthus retroflexus. Grassy monocotyledonous weeds: SETFA=Setaria faberi; ALOMY=Alopecurus myosuroides; ECHCG=Echinochloa crus-galli; ZEAMX=Zea mays (corn, maize, e.g. volunteer corn). For Compound A16, the grassy monocotyledonous weed LOLPE (Lolium perenne) was used in the test insterad of ALOMY."}, "Setaria faberi (SETFA) [3]": {"system": "Setaria faberi (SETFA)", "assay": "Biological Example 1A glasshouse assay, post-emergence application", "conditions": "Setaria faberi, 312 h, post-emergence, 13 days after application, read-out: Percentage phytotoxicity SETFA", "method": "as §1, §2"}, "[4]": {"system": "Amaranthus retroflexus (AMARE)", "assay": "Biological Example 1A glasshouse assay, post-emergence application", "conditions": "312 h, 13 days after application, read-out: Percentage phytotoxicity AMARE", "method": "as §1, §2"}, "Lolium perenne (LOLPE) [5]": {"system": "Lolium perenne (LOLPE)", "assay": "Biological Example 1A glasshouse assay, post-emergence application", "conditions": "13 days after application", "method": "as §1, §2"}, "[6]": {"system": "Echinochloa crus-galli (ECHCG)", "assay": "Biological Example 1A glasshouse assay, post-emergence application", "conditions": "312 h, 13 days after application, read-out: Percentage phytotoxicity ECHCG", "method": "as §1, §2"}, "[7]": {"system": "Abutilon theophrasti (ABUTH)", "assay": "Biological Example 1A glasshouse assay, post-emergence application", "conditions": "312 h, 13 days after application, read-out: Percentage phytotoxicity ABUTH", "method": "as §1, §2"}, "[8]": {"system": "Zea mays (ZEAMX, corn, maize, e.g. volunteer corn)", "assay": "Biological Example 1B glasshouse assay, pre-emergence application", "conditions": "250 g/ha, 13 days after application", "method": "as §1, §2"}, "Setaria faberi (SETFA) [9]": {"system": "Setaria faberi (SETFA)", "assay": "Biological Example 1B glasshouse assay, pre-emergence application", "conditions": "250 g/ha, 13 days after application", "method": "as §1, §2"}, "[10]": {"system": "Amaranthus retroflexus (AMARE)", "assay": "Biological Example 1B glasshouse assay, pre-emergence application", "conditions": "250 g/ha, 13 days after application", "method": "as §1, §2"}, "Lolium perenne (LOLPE) [11]": {"system": "Lolium perenne (LOLPE)", "assay": "Biological Example 1B glasshouse assay, pre-emergence application", "conditions": "250 g/ha, 13 days after application", "method": "as §1, §2"}, "[12]": {"system": "Echinochloa crus-galli (ECHCG)", "assay": "Biological Example 1B glasshouse assay, pre-emergence application", "conditions": "250 g/ha, 13 days after application", "method": "as §1, §2"}, "[13]": {"system": "Abutilon theophrasti (ABUTH)", "assay": "Biological Example 1B glasshouse assay, pre-emergence application", "conditions": "250 g/ha, 13 days after application", "method": "as §1, §2"}}, "data": [{"smiles": "CC#Cc1cc(F)c(C2C(=O)C3C(C2=O)[C@H]2CC[C@@H]3O2)c(OC)c1", "note": "(stereo partly shown) [Compound A16]", "values": [{"measurement": "post-emergent herbicidal potency against grassy monocotyledonous weeds (in words)", "setting": "[1]", "result": "potent post-emergent herbicides"}, {"measurement": "pest or weed control at 30 g/ha", "setting": "[2]; 30 g/ha", "result": 90, "unit": "%"}, {"measurement": "pest or weed control at 250 g/ha", "setting": "[2]; 250 g/ha", "result": 100, "unit": "%"}, {"measurement": "pest or weed control at 30 g/ha", "setting": "Setaria faberi (SETFA) [3]; 30 g/ha", "result": 70, "unit": "%"}, {"measurement": "pest or weed control at 250 g/ha", "setting": "Setaria faberi (SETFA) [3]; 250 g/ha", "result": 90, "unit": "%"}, {"measurement": "pest or weed control at 30 g/ha", "setting": "[4]; 30 g/ha", "result": 0, "unit": "%"}, {"measurement": "pest or weed control at 250 g/ha", "setting": "[4]; 250 g/ha", "result": 10, "unit": "%"}, {"measurement": "Percentage phytotoxicity LOLPE", "setting": "Lolium perenne (LOLPE) [5]; 30 g/ha", "result": 70, "unit": "%"}, {"measurement": "Percentage phytotoxicity LOLPE", "setting": "Lolium perenne (LOLPE) [5]; 250 g/ha", "result": 90, "unit": "%"}, {"measurement": "pest or weed control at 30 g/ha", "setting": "[6]; 30 g/ha", "result": 90, "unit": "%"}, {"measurement": "pest or weed control at 250 g/ha", "setting": "[6]; 250 g/ha", "result": 100, "unit": "%"}, {"measurement": "pest or weed control at 30 g/ha", "setting": "[7]; 30 g/ha", "result": 0, "unit": "%"}, {"measurement": "pest or weed control at 250 g/ha", "setting": "[7]; 250 g/ha", "result": 70, "unit": "%"}, {"measurement": "Percentage phytotoxicity ZEAMX", "setting": "[8]", "result": 90, "unit": "%"}, {"measurement": "Percentage phytotoxicity SETFA", "setting": "Setaria faberi (SETFA) [9]", "result": 70, "unit": "%"}, {"measurement": "Percentage phytotoxicity AMARE", "setting": "[10]", "result": 30, "unit": "%"}, {"measurement": "Percentage phytotoxicity LOLPE", "setting": "Lolium perenne (LOLPE) [11]", "result": 90, "unit": "%"}, {"measurement": "Percentage phytotoxicity ECHCG", "setting": "[12]", "result": 90, "unit": "%"}, {"measurement": "Percentage phytotoxicity ABUTH", "setting": "[13]", "result": 0, "unit": "%"}]}]}
